{
  "source": "patent US11992478B2",
  "about": "“Methods of using androgen receptor inhibitors as cancer therapeutics” (THE TRUSTEES OF THE UNIVERSITY OF PENNSYLVANIA, priority 2020, dated 2024)",
  "key": {"p-ERK (MAPK activation)": {"test_system": "p-ERK (MAPK activation)", "experiment": "ERK phosphorylation / MAPK activation (Western blot)", "assay_type": "cell-based, human"}, "[1]": {"test_system": "mouse melanoma cells (YUMM1.7)", "experiment": "Cell proliferation of mouse melanoma cells (YUMM1.7)", "assay_type": "cell-based"}, "[2]": {"test_system": "human melanoma cells (WM46)", "experiment": "Cell proliferation of human melanoma cells (WM46)", "assay_type": "cell-based", "settings": "for proliferation following addition of cations: WM46, over 6-days (FIG. 4D)"}, "human PDAC": {"test_system": "human PDAC", "experiment": "Cell proliferation of human PDAC cells", "assay_type": "cell-based", "settings": "human PDAC (FIG. 9C)"}, "YAP": {"test_system": "YAP", "experiment": "YAP nuclear translocation (Western blot of fractions)", "assay_type": "cell-based, human", "settings": "WM46, testosterone exposure (FIG. 12B)", "text": "(§1) (For clarity, this figure highlights only a subset of proteins from the entire data set of 450 proteins at 4 time points). […] FIG. 12B is a Western blot showing that testosterone promotes YAP nuclear translocation in WM46 cells. […] is used as control for the cytosolic fraction; PARP is used as a control for the nuclear fraction.\nWhen activated, YAP and the related transcription factor TAZ are dephosphorylated and move from the cytosol to the nucleus. […] YAP is a substrate for 14-3-3ε, which sequesters YAP in the cytosol. As 14-3-3ε, was one of the proteins most depleted by testosterone, it is believed, without being bound by theory, that 14-3-3ε loss promotes YAP translocation to the nucleus where it then induces expression of tumor-promoting genes. It is likely that the MAK/ERK changes also contribute to testosterone induced YAP activation, as MEK and ERK1/2 are also major positive YAP regulators."}, "ZIP9": {"test_system": "ZIP9", "settings": "competitive binding assays; cited from earlier work"}, "[3]": {"test_system": "primary human melanocytes", "experiment": "Cell proliferation of primary human melanocytes", "assay_type": "cell-based", "settings": "androgen treatment (FIG. 3A)"}, "murine PDAC": {"test_system": "murine PDAC", "experiment": "Cell proliferation of murine PDAC cells", "assay_type": "cell-based, mouse"}, "[4]": {"test_system": "human WM46 melanoma cells", "experiment": "Cytosolic zinc influx with Fluo-Zin3 reporter", "assay_type": "cell-based"}, "[5]": {"test_system": "WM46 human melanoma cells", "experiment": "Reverse Phase Protein Array of testosterone-treated melanoma cells", "assay_type": "cell-based", "settings": "RPPA, testosterone 0, 30, 60 minutes and 8 hours", "text": "as §1\nTestosterone induces a rapid, ZIP9 dependent, increase in free cytosolic zinc that is required for the hyperproliferation. Zinc is required for myriad cellular enzymes and associated biologic process making it difficult to hypothesize a priori, what signaling mechanism(s) downstream of ZIP9 mediate the testosterone induced hyperproliferation. A 450 element Reverse Phase Protein Array analysis of human melanoma cells treated with testosterone for 0, 30 minutes, 60 minutes and 8 hours (FIG. 12A) was performed."}, "[6]": {"test_system": "cell lines derived from diverse human and murine tumor types", "experiment": "Testosterone-induced hyperproliferation in a panel of tumor cell lines (FIG. 11)", "assay_type": "cell-based"}, "human WM46 melanoma": {"test_system": "human WM46 melanoma", "experiment": "WM46 melanoma tumor growth in SCID mice", "assay_type": "in vivo", "settings": "for effect on tumors with engineered ZIP9 loss: either male or female mice", "text": "The tumor-promoting effects of testosterone on early prostate cancer are known, and inhibition of testosterone signaling is a first-line treatment. […] Here it is shown that targeting nonclassical testosterone signaling through ZIP9 is therapeutically useful for cancer (FIG. 13)."}, "melanoma cells": {"test_system": "melanoma cells", "experiment": "Testosterone-induced hyperproliferation in melanoma cells (FIG. 10A)", "assay_type": "cell-based", "settings": "2 μM Bicalutamide (FIG. 10A)"}, "[7]": {"settings": "male SCID mice, 20 mg/kg/day systemic daily (FIG. 13C)"}},
  "data": [
    {"smiles": "c1ccc(CN(CCN(Cc2ccccn2)Cc2ccccn2)Cc2ccccn2)nc1", "note": "[TPEN, N,N,N′,N′-tetrakis (2-pyridinylmethyl)-1,2-ethanediamine]", "values": [
      {"measurement": "effect on testosterone p-ERK induction", "setting": "p-ERK (MAPK activation); with testosterone (FIG. 10B)", "result": "completely blocked"},
      {"measurement": "effect on testosterone stimulated proliferation", "setting": "[1]; YUMM, zinc chelator plus testosterone (FIG. 7B)", "result": "blocked"},
      {"measurement": "effect on proliferation on its own", "setting": "[2]; WM46, without testosterone (FIG. 4C)", "result": "no significant effect"},
      {"measurement": "effect on testosterone induced proliferation", "setting": "[2]; WM46, zinc chelator plus testosterone, 6 days (FIG. 4C)", "result": "completely blocked"}
    ]},
    {"smiles": "C[C@]12CC[C@H]3[C@@H](CCC4=CC(=O)CC[C@@]43C)[C@@H]1CC[C@@H]2O", "note": "[testosterone]", "values": [
      {"measurement": "proliferation", "setting": "human PDAC", "result": "promotes proliferation"},
      {"measurement": "time to YAP movement from cytoplasm to nucleus", "setting": "YAP", "result": "30 to 60", "unit": "min"},
      {"measurement": "ERK phosphorylation", "setting": "p-ERK (MAPK activation); testosterone treatment (FIG. 3B)", "result": "increases ERK phosphorylation"},
      {"measurement": "ZIP9 binding specificity / affinity", "setting": "ZIP9", "result": "highly specific"},
      {"measurement": "cellular proliferation", "setting": "[1]; mouse melanoma cells, androgen treatment (FIG. 3A)", "result": "markedly increased cellular proliferation"},
      {"measurement": "proliferation of isogenic clones lacking ZIP9", "setting": "[1]; ΔZIP9 YUMM (FIG. 7B)", "result": "no effect"},
      {"measurement": "cellular proliferation", "setting": "[3]", "result": "markedly increased cellular proliferation"},
      {"measurement": "response of ΔZIP9 cells in vitro", "setting": "murine PDAC; mPDAC ΔZIP9 (FIG. 9E)", "result": "do not respond"},
      {"measurement": "proliferation", "setting": "murine PDAC; murine PDAC (FIG. 9C)", "result": "promotes proliferation"},
      {"measurement": "duration of sustained elevation in free cytosolic zinc", "setting": "[4]; WM46, in the presence of the androgen (FIG. 4B)", "result": "at least 2 days"},
      {"measurement": "zinc influx", "setting": "[4]; WM46, over 5 minutes (FIG. 4A)", "result": "rapid zinc influx"},
      {"measurement": "effect on zinc in cells lacking ZIP9", "setting": "[4]; ΔZIP9 WM46 (FIG. 7C)", "result": "no significant effect"},
      {"measurement": "14-3-3c protein expression", "setting": "[5]", "result": "downregulated"},
      {"measurement": "CDKN2A (p16) protein expression", "setting": "[5]", "result": "downregulated"},
      {"measurement": "YAP1 protein expression", "setting": "[5]", "result": "Upregulated"},
      {"measurement": "phosphorylated ERK (T202; Y204) level", "setting": "[5]", "result": "Upregulated"},
      {"measurement": "cellular proliferation", "setting": "[2]", "result": "markedly increased cellular proliferation"},
      {"measurement": "concentration of maximum proliferative response", "setting": "[2]", "result": 75, "unit": "nM"},
      {"measurement": "proliferation of isogenic clones lacking ZIP9", "setting": "[2]", "result": "no effect"},
      {"measurement": "proliferative response to testosterone", "setting": "[6]; MCF7 cells", "result": "did not respond"},
      {"measurement": "proliferative response to testosterone", "setting": "[6]; U87 cells", "result": "did not respond"}
    ]},
    {"smiles": "[Fe]", "note": "[iron]", "values": [
      {"measurement": "proliferation following addition of cations", "setting": "[2]", "result": "Only zinc promoted proliferation"}
    ]},
    {"smiles": "C[C@]12CCC(=O)C=C1CC[C@@H]1[C@@H]2CC[C@]2(C)C(=O)CC[C@@H]12", "note": "[androstenedione]", "values": [
      {"measurement": "ZIP9 binding specificity / affinity", "setting": "ZIP9", "result": "relatively low affinity"}
    ]},
    {"smiles": "[Zn+2]", "note": "[zinc]", "values": [
      {"measurement": "proliferation following addition of cations", "setting": "[2]", "result": "promoted proliferation"}
    ]},
    {"smiles": "CNC(=O)c1ccc(N2C(=S)N(c3cnc(C#N)c(C(F)(F)F)c3)C(=O)C23CCC3)cc1F", "note": "[apalutamide]", "values": [
      {"measurement": "effect on tumors with engineered ZIP9 loss", "setting": "human WM46 melanoma", "result": "no significant effect"},
      {"measurement": "melanoma growth", "setting": "human WM46 melanoma; female mice, systemic delivery", "result": "no effect"},
      {"measurement": "survival", "setting": "human WM46 melanoma; [7]", "result": "extend survival"},
      {"measurement": "tumor growth", "setting": "human WM46 melanoma; [7]", "result": "inhibits tumor growth"},
      {"measurement": "effect on testosterone driven increased proliferation", "setting": "[2]; WM46 (FIG. 10E)", "result": "inhibit testosterone driven increased proliferation"},
      {"measurement": "effect on testosterone dependent-increased proliferation", "setting": "[2]; WM46, treated with 204 Apalutamide (so in the source)", "result": "reverted"}
    ]},
    {"smiles": "C[C@]12CCC(=O)C[C@@H]1CC[C@@H]1[C@@H]2CC[C@]2(C)[C@@H](O)CC[C@@H]12", "note": "[dihydrotestosterone]", "values": [
      {"measurement": "ZIP9 binding specificity / affinity", "setting": "ZIP9", "result": "relatively low affinity"}
    ]},
    {"smiles": "CC(O)(CS(=O)(=O)c1ccc(F)cc1)C(=O)Nc1ccc(C#N)c(C(F)(F)F)c1", "note": "(stereo not shown) [bicalutamide]", "values": [
      {"measurement": "effect on tumors with engineered ZIP9 loss", "setting": "human WM46 melanoma", "result": "no significant effect"},
      {"measurement": "tumor growth", "setting": "human WM46 melanoma; female mice, 30 mg/kg/day via oral gavage (FIG. 13A)", "result": "no effect"},
      {"measurement": "effect on cell proliferation in the absence of testosterone", "setting": "melanoma cells", "result": "no effect"},
      {"measurement": "cell lines in which testosterone-induced hyperproliferation is blocked", "setting": "[6]; FIG. 11", "result": "10/12"}
    ]},
    {"smiles": "[Mn+2]", "note": "[manganese]", "values": [
      {"measurement": "proliferation following addition of cations", "setting": "[2]", "result": "Only zinc promoted proliferation"}
    ]}
  ]
}
